# From PMC9457168 (Proceedings of the National Academy of Sciences of the …, 2022)
# How the values were obtained:
# LCMV = experiment: microbe, parasite or virus in culture; format: cell-based, lymphocytic choriomeningitis virus; settings: Mammarenavirus choriomeningitidis, KB, read-out: EC50 (nM) Mean (SD) LCMV
# TPMV = experiment: microbe, parasite or virus in culture; format: cell-based; settings: Thottapalayam virus, HEK-293T, read-out: EC50 (nM) Mean (SD) TPMV
# LCMV WE strain = settings: mouse, in vivo
# LCMV Armstrong strain = format: cell-based, lymphocytic choriomeningitis virus
# LCMV nucleoprotein = format: cell-based, lymphocytic choriomeningitis virus
Structure (SMILES),EC50 (LCMV) [nM],EC50 (TPMV) [nM],survival rate (LCMV WE strain) [%],inflammatory foci in liver (pathology) (LCMV WE strain; 30 mg/kg),serum IFN-γ levels (LCMV WE strain; 30 mg/kg),serum TNF-α levels (LCMV WE strain; 30 mg/kg),viral antigen in liver (IHC) (LCMV WE strain; 30 mg/kg),"infectious viral particles in culture supernatants, pretreatment (LCMV Armstrong strain)","viral propagation, posttreatment (LCMV Armstrong strain)","viral titers in supernatants, pretreatment (LCMV Armstrong strain)",LCMV nucleoprotein production (immunofluorescence) (LCMV nucleoprotein)
"O=C1c2c(O)c(=O)ccn2N([C@@H]2c3ccccc3SCc3c2ccc(F)c3F)[C@@H]2COCCN12 [BXA, baloxavir acid]",> 1000,> 1000,,,,,,,,,
"NC(=O)c1ncn([C@@H]2O[C@H](CO)[C@@H](O)[C@H]2O)n1 [RBV, Ribavirin]",,,20,inflammatory foci were observed,equivalent level to the vehicle-treated mice,higher than that in compound B–treated mice,viral antigens were detected in hepatocytes,decreased infectious viral particles,significantly reduced viral propagation,increased,"inhibited only at 1,000 nM"
